According to patent US20120015901A1, “METHODS AND PREPARATIONS FOR PROTECTING CRITICALLY ILL PATIENTS” (priority 2009, published 2012):
Read-outs that look alike come from different tables or passages of the source.

Columns and labels:
[1] = tested on: parentally fed, hyperglycemic, burn-injured rabbits
From the text: Our research group previously developed an animal model of critical illness that has shown to mimic the dynamic endocrine, immunological and metabolic changes characteristic of human critical illness. In this animal model we investigated the effect of critical illness on spermidine levels and the effects of spermidine-administration during critical illness on survival, organ function (clinical, biochemical, and cyto/histopathological effects), and on metabolic, inflammatory/immunological and cellular pathways. Animals were treated according to the “Principals of Laboratory Animal Care” formulated by the U.S. National Society for Medical Research and the “Guide for the Care and Use of Laboratory Animals” prepared by the National Institutes of Health. The protocol was approved by the K.U. Leuven Ethical Review Board for Animal Research. Adult male New Zealand White rabbits, weighing approximately 3 kg, were purchased from a local rabbitry, were housed individually with free access to water, hay and regular rabbit chow, and were exposed to artificial light for 14 h per day. This animal model of prolonged critical illness mimics the human condition (Weekers et al. (2003) Endocrinol 144, 5329-5338). Indeed, the critically ill animals undergo the same metabolic, immunological and endocrine disturbances and development of organ failure and muscle wasting as the human counterpart.
In our animal model, critical illness was induced by placing intravascular catheters, selectively destroying pancreatic β-cells by alloxan, followed by burn injury. […] The administration of alloxan was necessary to control both blood glucose and plasma insulin levels independently. The application of the burn wound is done 48 hours after alloxan-injection, at which time alloxan has done irreversible damage to the β-cells (selective β-cell necrosis, phase 4 after alloxan-injection). After imposing a burn wound, animals were brought to […], because this reflects most the human situation of critical illness. Non-injured, healthy rabbits served as control.
The effects of spermidine administration were investigated in parentally fed, hyperglycemic, burn-injured rabbits. The rabbits were purchased from a local rabbitry and weighed approximately 3-3.5 kg. The burn injury experiments were performed analoguous to those described above. After imposing the burn wound, animals received a continuous infusion of saline or spermidine (low dose ranging from 0.3-3 mg/day or high dose ranging from 30-300 mg/day).
At 09:00±1 h of […] (FIG. 3) animals were weighed, and under general anesthesia (30 mg/kg ketamine i.m. [Imalgene 1000; Merial, Lyon, France]; 0.15 ml/kg medetomidine i.m. [Orion, Espoo, Finland]), an ice-cold 10% solution of alloxan-monohydrate (150 mg/kg; Alloxan; Sigma-Aldrich, Bornem, Belgium) was injected slowly via a marginal ear vein. Afterward, the animals had free access to regular rabbit chow, hay and drinking water enriched with glucose to face alloxan-induced acute hypoglycemia.
At 10:00±1 h of Day 0 (FIG. 3), glycemia was measured to confirm hyperglycemia after alloxan (irreversible phase 4 after alloxan-injection). When glycemia exceeded 300 mg/dl, animals were considered eligible for the study. Under general anesthesia (see above), supplemented with 1.5 volume % isoflurane (Isoba Vet.; Schering-Plough, Brussels, Belgium) inhalation, animals were shaved and catheters were placed into the right jugular vein for intravenous infusion (4F; Vygon, Ecouen, France) and into the right carotid artery for blood sampling (5 Ch; Sherwood Medical, Tullamore, Ireland). A paravertebral block (5 ml Xylocaine 1%; Astra Zeneca, Brussels, Belgium) was performed and a full thickness burn injury of 20% body-surface area was imposed. Animals were then fitted to a homemade jacket to secure catheters and immediately returned to their cages.

[2] = tested on: histone acetyltransferase activity (HAT-activity); assay: HAT activity assay, yeast nuclear extract; type: biochemical; settings: extracts of isolated yeast nuclei; spermidine 100 mM
Experimental: Yeast nuclei were isolated from 200 ml BY4741 wild type culture (grown for 24 h in SCD to stationary phase) as described previously (Buttner et al. (2007), Mol Cell 25, 233-246). Nuclear extract was prepared using nuclear extraction buffer from BioVision's Nuclear/Cytosol Fractionation Kit (Bio Vision, K266-25) without DTT addition, according to the manufacturer's protocol. Incubation time was doubled to 80 min with vortexing every 8 minutes. Protein concentration was determined via Bradford, giving yields of approximately 1 mg/ml protein. Yeast nuclear extract was immediately subjected to HAT activity assays.
For HAT-activity determination the commercially available HAT Activity Colorimetric Assay KIT from BioVision (Bio Vision K332-100) was employed. HAT assays were performed according to the manufacturer's protocol. […] Development of tetrazolium dye was measured by absorption at 440 nm using a GeniosPro plate reader (Tecan). Background readings were done with samples without NADH generating enzyme, giving the nuclear extracts unspecific background activity and eliminate any possible negative effects of spermidine addition on the assay itself. […] Calculated slopes of spermidine treated samples were compared to slopes of untreated samples which were set to a relative activity of 100%.

[3] = preliminary results, spermidine versus saline

Structure (SMILES): NCCCCNCCCN [spermidine]
- mortality ([1]; 0.3 to 3 mg spermidine per day (groups D, E; 2 groups of 7 animals)): 28%
- mortality ([1]; 30 to 300 mg spermidine per day (groups A, B, C; 3 groups of 8 animals)): 12.5%
- plasma and tissue levels of spermidine ([1]; already seen with doses of 1-200 mg spermidine per kg per day): could restore both plasma and tissue levels of spermidine
- survival rate ([1]; benefit most pronounced for the higher doses): marked improved survival rate
- AST levels (marker of liver dysfunction) ([1]; days following the initial hit): rapid and profound decrease in AST-levels
- rise in plasma creatinine (marker of kidney function) ([1]; high dose 30-300 mg/day, low dose 0.3-3 mg/day): could be prevented
- plasma spermidine concentration ([1]; higher doses 30-300 mg/day): maintained or increased the plasma spermidine to (supra)normal values
- mortality of the animals (in words) ([1]; higher doses 30-300 mg/day/rabbit): reduce the mortality
- plasma spermidine concentration ([1]; low doses 0.3-3 mg/day): minimal or no effect
- mortality of the animals (in words) ([1]; low doses 0.3-3 mg/day/rabbit): reduce the mortality
- kidney protection ([1]; low doses of spermidine): renoprotection
- autophagy (key proteins) [1, 3]: stimulation of autophagy
- mitochondrial function [1, 3]: improvement of mitochondrial function
- rise in ureum (marker of kidney dysfunction and muscle wasting) ([1]; spermidine infusion): could also be prevented
- blood pH and lactate levels during illness ([1]; spermidine infusion versus saline): maintain a normal pH and normal lactate levels
- general HAT activity [2]: efficiently inhibited
